{"source": "patent US12145927B2", "about": "(BRISTOL-MYERS SQUIBB COMPANY, priority 2018, dated 2024)", "data": [{"target": "T1, human IDO1 (Homo sapiens, UniProt P14902)", "T1 construct": "expressed in transfected cells", "T1 sequence (P14902 whole entry)": "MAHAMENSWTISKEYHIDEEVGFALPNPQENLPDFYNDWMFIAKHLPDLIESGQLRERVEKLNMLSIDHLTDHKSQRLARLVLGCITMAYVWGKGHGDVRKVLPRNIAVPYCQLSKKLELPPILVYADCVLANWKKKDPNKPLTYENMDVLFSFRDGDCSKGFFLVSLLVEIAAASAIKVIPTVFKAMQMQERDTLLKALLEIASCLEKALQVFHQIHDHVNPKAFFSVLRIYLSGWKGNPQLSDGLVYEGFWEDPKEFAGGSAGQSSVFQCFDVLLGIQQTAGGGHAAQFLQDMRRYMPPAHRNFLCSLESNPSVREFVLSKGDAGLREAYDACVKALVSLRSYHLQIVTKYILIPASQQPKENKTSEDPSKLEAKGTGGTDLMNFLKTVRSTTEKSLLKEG", "assay": "IDO inhibition assay in human IDO1/HEK293 cells (IDO1 HEK Human)", "type": "cell-based", "settings": "HEK293 cells stably expressing human IDO1; 20 hours incubation; absorbance at 490 nm after Ehrlich reagent", "protocol": "HEK293 cells were transfected with a pCDNA-based mammalian expression vector harboring human IDO1 cDNA (NM 002164.2) by electroporation. They were cultured in medium (DMEM with 10% FBS) containing 1 mg/ml G418 for two weeks. Clones of HEK293 cells that stably expressed human IDO1 protein were selected and expanded for IDO inhibition assay.\nThe human IDO1/HEK293 cells were seeded at 10,000 cells per 50 μL per well with RPMI/phenol red free media contains 10% FBS in a 384-well black wall clear bottom tissue culture plate (Matrix Technologies LLC) 100 nL of certain concentration of compound was then added to each well using ECHO liquid handling systems. The cells were incubated for 20 hours in 37° C. incubator with 5% CO2.\nThe compound treatments were stopped by adding trichloroacetic acid (Sigma-Aldrich) to a final concentration at 0.2%. The cell plate was further incubated at 50° C. for 30 minute. The equal volume supernatant (20 μL) and 0.2% (w/v) Ehrlich reagent (4-dimethylaminobenzaldehyde, Sigma-Aldrich) in glacial acetic acid were mixed in a new clear bottom 384-well plate. This plate was then incubated at RT for 30 minute. The absorbance at 490 nm was measured on Envision plate reader.\nCompound IC50 values were calculated using the counts of 500 nM of a reference standard treatment as one hundred percent inhibition, and counts of no compound but DMSO treatment as zero percent inhibition.", "units": {"IC50": "nM"}, "values": [{"molecule": "O=C(Cc1ccccc1F)Nc1cc(-c2ccccc2-c2nnn[nH]2)cc2c1OCCCC2C1CC1", "note": "(single isomer, unassigned) [40 (En. 2), N-(7-(2-(1H-tetrazol-5-yl)phenyl)-5-cyclopropyl-2,3,4,5-tetrahydrobenzo[b]oxepin-9-yl)-2-(2-fluorophenyl)acetamide]", "IC50": 58.6}, {"molecule": "O=C(Nc1ccc(Cl)cc1F)Nc1cc(-c2ccccc2-c2nnn[nH]2)cc2c1OCCCC2C1CC1", "note": "(single isomer, unassigned) [41 (En. 1), 1-(7-(2-(1H-tetrazol-5-yl)phenyl)-5-cyclopropyl-2,3,4,5-tetrahydrobenzo[b]oxepin-9-yl)-3-(4-chloro-2-fluorophenyl)urea]", "IC50": 25.2}, {"molecule": "O=C(Nc1ccc(Cl)cc1F)Nc1cc(-c2ccccc2-c2nnn[nH]2)cc2c1OCCCC2C1CC1", "note": "(single isomer, unassigned) [41 (En. 2), 1-(7-(2-(1H-tetrazol-5-yl)phenyl)-5-cyclopropyl-2,3,4,5-tetrahydrobenzo[b]oxepin-9-yl)-3-(4-chloro-2-fluorophenyl)urea]", "IC50": 93.8}, {"molecule": "c1ccc(C2CCCOc3c(Nc4nc5ccccc5o4)cc(-c4ccccc4-c4nnn[nH]4)cc32)cc1", "note": "(single isomer, unassigned) [53 (En. 1), N-(7-(2-(1H-tetrazol-5-yl)phenyl)-5-phenyl-2,3,4,5-tetrahydrobenzo[b]oxepin-9-yl) benzo[d] oxazol-2-amine]", "IC50": 216}, {"molecule": "c1ccc(C2CCCOc3c(Nc4nc5ccccc5o4)cc(-c4ccccc4-c4nnn[nH]4)cc32)cc1", "note": "(single isomer, unassigned) [53 (En. 2), N-(7-(2-(1H-tetrazol-5-yl)phenyl)-5-phenyl-2,3,4,5-tetrahydrobenzo[b]oxepin-9-yl) benzo[d] oxazol-2-amine]", "IC50": 1.3}, {"molecule": "Cc1cnc(Nc2cc(-c3ccccc3-c3nnn[nH]3)cc3c2OCCCC3c2ccccc2)nc1", "note": "(single isomer, unassigned) [55 (En. 1), N-(7-(2-(1H-tetrazol-5-yl)phenyl)-5-phenyl-2,3,4,5-tetrahydrobenzo[b]oxepin-9-yl)-5-methylpyrimidin-2-amine]", "IC50": 1400}, {"molecule": "Cc1cnc(Nc2cc(-c3ccccc3-c3nnn[nH]3)cc3c2OCCCC3c2ccccc2)nc1", "note": "(single isomer, unassigned) [55 (En. 2), N-(7-(2-(1H-tetrazol-5-yl)phenyl)-5-phenyl-2,3,4,5-tetrahydrobenzo[b]oxepin-9-yl)-5-methylpyrimidin-2-amine]", "IC50": 77.6}, {"molecule": "Fc1ccc2nc(Nc3cc(-c4ccccc4-c4nnn[nH]4)cc4c3OCCCC4c3ccccc3)sc2c1", "note": "(single isomer, unassigned) [57 (En. 1), N-(7-(2-(1H-tetrazol-5-yl)phenyl)-5-phenyl-2,3,4,5-tetrahydrobenzo[b]oxepin-9-yl)-6-fluorobenzo[d]thiazol-2-amine]", "IC50": 849}, {"molecule": "Fc1ccc2nc(Nc3cc(-c4ccccc4-c4nnn[nH]4)cc4c3OCCCC4c3ccccc3)sc2c1", "note": "(single isomer, unassigned) [57 (En. 2), N-(7-(2-(1H-tetrazol-5-yl)phenyl)-5-phenyl-2,3,4,5-tetrahydrobenzo[b]oxepin-9-yl)-6-fluorobenzo[d]thiazol-2-amine]", "IC50": 189}, {"molecule": "CC(=O)NS(=O)(=O)c1ccccc1-c1cc(NC(=O)Nc2ccc(C)cc2)c2c(c1)C(c1ccccc1)CCCO2", "note": "(single isomer, unassigned) [59 (En. 2), N-((2-(5-phenyl-9-(3-(p-tolyl)ureido)-2,3,4,5-tetrahydrobenzo[b]oxepin-7-yl)phenyl)sulfonyl)acetamide]", "IC50": 280}, {"molecule": "Cc1ccc(NC(=O)Nc2cc(-c3ccccc3S(=O)(=O)NC(=O)c3ccccc3)cc3c2OCCCC3c2ccccc2)cc1", "note": "(single isomer, unassigned) [60 (En. 1), N-((2-(5-phenyl-9-(3-(p-tolyl)ureido)-2,3,4,5-tetrahydrobenzo[b]oxepin-7-yl)phenyl)sulfonyl)benzamide]", "IC50": "> 6000"}, {"molecule": "Cc1ccc(Nc2cc(-c3ccccc3-c3nnn[nH]3)cc3c2OCCCC3c2ccccc2)nc1", "note": "(single isomer, unassigned) [62 (En. 1), N-(7-(2-(1H-tetrazol-5-yl)phenyl)-5-phenyl-2,3,4,5-tetrahydrobenzo[b]oxepin-9-yl)-5-methylpyridin-2-amine]", "IC50": 1810}, {"molecule": "Cc1ccc(Nc2cc(-c3ccccc3-c3nnn[nH]3)cc3c2OCCCC3c2ccccc2)nc1", "note": "(single isomer, unassigned) [62 (En. 2), N-(7-(2-(1H-tetrazol-5-yl)phenyl)-5-phenyl-2,3,4,5-tetrahydrobenzo[b]oxepin-9-yl)-5-methylpyridin-2-amine]", "IC50": 44.9}, {"molecule": "Fc1cnc(Nc2cc(-c3ccccc3-c3nnn[nH]3)cc3c2OCCCC3c2ccccc2)nc1", "note": "(single isomer, unassigned) [63 (En-2), N-(7-(2-(1H-tetrazol-5-yl)phenyl)-5-phenyl-2,3,4,5-tetrahydrobenzo[b]oxepin-9-yl)-5-fluoropyrimidin-2-amine]", "IC50": 11.6}, {"molecule": "Fc1cnc(Nc2cc(-c3ccccc3-c3nnn[nH]3)cc3c2OCCCC3c2ccccc2)nc1", "note": "(single isomer, unassigned) [63 (En. 1), N-(7-(2-(1H-tetrazol-5-yl)phenyl)-5-phenyl-2,3,4,5-tetrahydrobenzo[b]oxepin-9-yl)-5-fluoropyrimidin-2-amine]", "IC50": 539}, {"molecule": "c1ccc(C2CCCOc3c(Nc4nc5ccccc5s4)cc(-c4ccccc4-c4nnn[nH]4)cc32)cc1", "note": "(single isomer, unassigned) [64 (En. 1), N-(7-(2-(1H-tetrazol-5-yl)phenyl)-5-phenyl-2,3,4,5-tetrahydrobenzo[b]oxepin-9-yl) benzo[d]thiazol-2-amine]", "IC50": 422}, {"molecule": "c1ccc(C2CCCOc3c(Nc4nc5ccccc5s4)cc(-c4ccccc4-c4nnn[nH]4)cc32)cc1", "note": "(single isomer, unassigned) [64 (En. 2), N-(7-(2-(1H-tetrazol-5-yl)phenyl)-5-phenyl-2,3,4,5-tetrahydrobenzo[b]oxepin-9-yl) benzo[d]thiazol-2-amine]", "IC50": 17}, {"molecule": "c1ccc(C2CCCOc3c(Nc4ccn5nccc5n4)cc(-c4ccccc4-c4nnn[nH]4)cc32)cc1", "note": "(single isomer, unassigned) [84 (En. 2), N-(7-(2-(1H-tetrazol-5-yl)phenyl)-5-phenyl-2,3,4,5-tetrahydrobenzo[b]oxepin-9-yl) pyrazolo[1,5-a]pyrimidin-5-amine]", "IC50": 25.8}, {"molecule": "COCC(CC(=O)O)c1cc(Nc2ccc(C#N)cc2)c2c(c1)C(C1CC1)CCCO2", "note": "(single isomer, unassigned) [131 (dia. 1), 3-(9-(4-Cyanophenylamino)-5-cyclopropyl-2,3,4,5-tetrahydrobenzo[b]oxepin-7-yl)-4-methoxybutanoic acid]", "IC50": 25.6}, {"molecule": "Cc1ccc(CC(=O)Nc2cc(-c3ccccc3-c3nnn[nH]3)cc3c2OCCCC3c2ccccc2)cc1", "note": "(single isomer, unassigned) [Example 2-2, N-(7-(2-(1H-tetrazol-5-yl)phenyl)-5-phenyl-2,3,4,5-tetrahydrobenzo[b]oxepin-9-yl)-2-(p-tolyl)acetamide]", "IC50": 31.8}, {"molecule": "Cc1ccc(CC(=O)Nc2cc(-c3ccccc3-c3nnn[nH]3)cc3c2OCCCC3c2ccccc2)cc1", "note": "(single isomer, unassigned) [Example 2-3, N-(7-(2-(1H-tetrazol-5-yl)phenyl)-5-phenyl-2,3,4,5-tetrahydrobenzo[b]oxepin-9-yl)-2-(p-tolyl)acetamide]", "IC50": 21.4}, {"molecule": "Cc1ccc(NC(=O)Nc2cc(-c3ccccc3-c3nnn[nH]3)cc3c2OCCCC3c2ccccc2)nc1", "note": "(single isomer, unassigned) [Example 3, 1-(7-(2-(1H-tetrazol-5-yl)phenyl)-5-phenyl-2,3,4,5-tetrahydrobenzo[b]oxepin-9-yl)-3-(5-methylpyridin-2-yl)urea]", "IC50": 35.6}, {"molecule": "Cc1ccc(NC(=O)Nc2cc(-c3ccccc3C(=O)O)cc3c2OCCCC3c2ccccc2)cc1", "note": "(single isomer, unassigned) [Example 8-2, 2-(5-phenyl-9-(3-(p-tolyl)ureido)-2,3,4,5-tetrahydrobenzo[b]oxepin-7-yl)benzoic acid]", "IC50": 970}, {"molecule": "CCC(C)C1CCCOc2c(NC(=O)Nc3ccc(C)cc3)cc(-c3ccccc3-c3nnn[nH]3)cc21", "note": "(single isomer, unassigned) [Example 29, 1-(7-(2-(1H-tetrazol-5-yl)phenyl)-5-(sec-butyl)-2,3,4,5-tetrahydrobenzo[b]oxepin-9-yl)-3-(p-tolyl)urea]", "IC50": 18}, {"molecule": "Cc1ccc(NC(=O)Nc2cc(-c3ccccc3-c3nc(=O)o[nH]3)cc3c2OCCCC3C2CC2)cc1", "note": "(single isomer, unassigned) [Example 33-1, 1-(5-cyclopropyl-7-(2-(5-oxo-2,5-dihydro-1,2,4-oxadiazol-3-yl)phenyl)-2,3,4,5-tetrahydrobenzo[b]oxepin-9-yl)-3-(p-tolyl)urea]", "IC50": 1.2}, {"molecule": "Cc1ccc(NC(=O)Nc2cc(-c3ccccc3-c3nc(=O)o[nH]3)cc3c2OCCCC3C2CC2)cc1", "note": "(single isomer, unassigned) [Example 33-2, 1-(5-cyclopropyl-7-(2-(5-oxo-2,5-dihydro-1,2,4-oxadiazol-3-yl)phenyl)-2,3,4,5-tetrahydrobenzo[b]oxepin-9-yl)-3-(p-tolyl)urea]", "IC50": 8}, {"molecule": "Cc1ccc(-c2nnn[nH]2)c(-c2cc(NC(=O)Nc3ccccc3F)c3c(c2)C(C2CC2)CCCO3)c1", "note": "(single isomer, unassigned) [Example 34-1]", "IC50": 66}]}]}
